Results from ChEMBL document CHEMBL1158467, “In vitro intrinsic clearance-based optimization of N3-phenylpyrazinones as corticotropin-releasing factor-1 (CRF1) receptor antagonists” (J Med Chem, 2009).
≈ marks a conversion by molar mass, not a printed value. Calls of active or inactive are those of the source. The rule behind the calls is not given here.

Assays:
Rattus norvegicus [1] = test: Total plasma concentration in Sprague-Dawley rat at 10 mg/kg, po; format: ADME, organism-based; parameters: dose 10 mg/kg, route oral; conditions: in vivo
[2] = Fraction unbound in Sprague-Dawley rat plasma at 10 mg/kg, po after 3 hrs by equilibrium dialysis; format: ADME, organism-based; parameters: dose 10 mg/kg, route oral
Rattus norvegicus [3] = test: Ex vivo receptor occupancy of CRF1 receptor in Sprague-Dawley rat brain at 10 mg/kg, po after 20 mins by autoradiography relative to [125I-tyrosine]sauvagine; format: functional
[4] = Intrinsic clearance in human liver microsomes at 1 uM; format: ADME, Microsome
Rattus norvegicus [5] = test: Plasma free concentration in Sprague-Dawley rat at 10 mg/kg, po; format: ADME, organism-based; parameters: dose 10 mg/kg, route oral; conditions: in vivo
Rattus norvegicus [6] = test: Anxiolytic activity in Sprague-Dawley rat at 10 mg/kg, po assessed as decrease in exit latency after 60 mins by defensive withdrawal test relative to control; format: functional; parameters: scale not given: the % may be the effect or the level left
[7] = molecular target: T1, Corticotropin-releasing factor receptor 1 (Rattus norvegicus, UniProt P35353); test: Displacement of [125I]ovine-CRF from CRF1 receptor in rat frontal cortex by rapid filtration technique; format: tissue-based
T1 sequence (P35353 whole entry): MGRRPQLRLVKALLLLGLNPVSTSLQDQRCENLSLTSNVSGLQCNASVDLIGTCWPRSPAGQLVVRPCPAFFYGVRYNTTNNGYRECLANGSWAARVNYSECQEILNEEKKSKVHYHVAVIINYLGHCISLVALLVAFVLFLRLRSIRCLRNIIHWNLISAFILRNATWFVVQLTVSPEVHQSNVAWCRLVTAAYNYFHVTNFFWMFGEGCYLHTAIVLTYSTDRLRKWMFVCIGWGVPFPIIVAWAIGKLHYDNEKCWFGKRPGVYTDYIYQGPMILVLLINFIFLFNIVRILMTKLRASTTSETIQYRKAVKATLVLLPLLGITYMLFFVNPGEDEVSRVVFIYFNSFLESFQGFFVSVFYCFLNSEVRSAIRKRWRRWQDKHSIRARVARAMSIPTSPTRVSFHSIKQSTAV

Rattus norvegicus [8] = test: (§1) Cmax in Sprague-Dawley rat at 10 mg/kg, po dosed as aqueous solution of oleoyl macrogolglyceride/DMAC/polysorbate 80, 85:10:5 within 0.25 to 24 hrs; format: ADME, organism-based; parameters: dose 10 mg/kg, route oral; conditions: in vivo
Rattus norvegicus [9] = test: Ex vivo receptor occupancy of CRF1 receptor in Sprague-Dawley rat brain at 1 mg/kg, po after 20 mins by autoradiography relative to [125I-tyrosine]sauvagine; format: functional
[10] = molecular target: Corticotropin releasing hormone receptor 2 (Sus scrofa, UniProt B8Q4Z9); test: Displacement of [125I]sauvagine from CRF2 receptor in pig choroid plexus by rapid filtration technique; format: tissue-based
Rattus norvegicus [11] = test: (§2) Oral bioavailability in Sprague-Dawley rat at 10 mg/kg dosed as aqueous solution of oleoyl macrogolglyceride/DMAC/polysorbate 80, 85:10:5 within 0.25 to 24 hrs; format: ADME, organism-based; conditions: in vivo
[12] = Oral bioavailability in Sprague-Dawley rat at 10 mg/kg dosed as aqueous suspension of 1% polysorbate 80 in 0.5% methylcellulose within 0.25 to 24 hrs; format: ADME, organism-based; conditions: in vivo
[13] = Half life in Sprague-Dawley rat 2 mg/kg, iv within 0.17 to 24 hrs; format: ADME, organism-based; parameters: dose 2 mg/kg, route intravenous; conditions: in vivo
Rattus norvegicus [14] = test: Ex vivo receptor occupancy of CRF1 receptor in po dosed Sprague-Dawley rat brain after 20 mins by autoradiography; format: functional, organism-based
[15] = Aqueous solubility at pH 1; format: physicochemical
[16] = Volume of distribution at steady state in Sprague-Dawley rat 2 mg/kg, iv within 0.17 to 24 hrs; format: ADME, organism-based; parameters: dose 2 mg/kg, route intravenous; conditions: in vivo, read-out: Vdss
Rattus norvegicus [17] = test: Plasma free concentration in Sprague-Dawley rat at 1 mg/kg, po; format: ADME, organism-based; parameters: dose 1 mg/kg, route oral; conditions: in vivo
Rattus norvegicus [18] = test: Total plasma concentration in Sprague-Dawley rat at 3 mg/kg, po; format: ADME, organism-based; parameters: dose 3 mg/kg, route oral; conditions: in vivo
[19] = AUC in Sprague-Dawley rat at 10 mg/kg, po dosed as aqueous suspension of 1% polysorbate 80 in 0.5% methylcellulose within 0.25 to 24 hrs; format: ADME, organism-based; parameters: time 0.25-24 hr, dose 10 mg/kg, route oral; conditions: in vivo
[20] = Cmax in Sprague-Dawley rat at 10 mg/kg, po dosed as aqueous suspension of 1% polysorbate 80 in 0.5% methylcellulose within 0.25 to 24 hrs; format: ADME, organism-based; parameters: dose 10 mg/kg, route oral; conditions: in vivo
Rattus norvegicus [21] = test: Anxiolytic activity in Sprague-Dawley rat at 3 mg/kg, po assessed as decrease in exit latency after 60 mins by defensive withdrawal test relative to control; format: functional; parameters: scale not given: the % may be the effect or the level left
[22] = molecular target: T2, Corticotropin-releasing factor receptor 1 (Homo sapiens, UniProt P34998); test: Antagonist activity at CRF1 receptor in human Y-79 cells assessed as inhibition of CRF-induced cAMP production after 30 mins by HTRF analysis
T2 sequence (P34998 whole entry): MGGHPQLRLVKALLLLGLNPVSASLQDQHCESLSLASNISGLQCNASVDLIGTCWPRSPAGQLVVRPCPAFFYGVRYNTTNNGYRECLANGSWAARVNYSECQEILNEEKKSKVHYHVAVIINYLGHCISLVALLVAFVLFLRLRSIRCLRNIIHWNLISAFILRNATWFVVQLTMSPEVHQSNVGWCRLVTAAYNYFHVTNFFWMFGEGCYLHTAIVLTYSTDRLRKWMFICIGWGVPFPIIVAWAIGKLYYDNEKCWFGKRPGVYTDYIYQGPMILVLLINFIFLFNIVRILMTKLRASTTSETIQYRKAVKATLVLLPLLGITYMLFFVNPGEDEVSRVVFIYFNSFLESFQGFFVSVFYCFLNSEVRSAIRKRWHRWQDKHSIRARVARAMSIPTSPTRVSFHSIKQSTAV

Rattus norvegicus [23] = test: Anxiolytic activity in Sprague-Dawley rat at 1 mg/kg, po assessed as decrease in exit latency after 60 mins by defensive withdrawal test relative to control; format: functional; parameters: scale not given: the % may be the effect or the level left
[24] = Aqueous solubility at pH 6.5; format: physicochemical
Rattus norvegicus [25] = test: Ex vivo receptor occupancy of CRF1 receptor in Sprague-Dawley rat brain at 3 mg/kg, po after 20 mins by autoradiography relative to [125I-tyrosine]sauvagine; format: functional
Rattus norvegicus [26] = test: Total plasma concentration in Sprague-Dawley rat at 1 mg/kg, po; format: ADME, organism-based; parameters: dose 1 mg/kg, route oral; conditions: in vivo
[27] = AUC in Sprague-Dawley rat at 10 mg/kg, po dosed as aqueous solution of oleoyl macrogolglyceride/DMAC/polysorbate 80, 85:10:5 within 0.25 to 24 hrs; format: ADME, organism-based; parameters: time 0.25-24 hr, dose 10 mg/kg, route oral; conditions: plasma
[28] = Clearance in Sprague-Dawley rat 2 mg/kg, iv within 0.17 to 24 hrs; format: ADME, organism-based; parameters: dose 2 mg/kg, route intravenous; conditions: in vivo
Rattus norvegicus [29] = test: Plasma free concentration in Sprague-Dawley rat at 3 mg/kg, po; format: ADME, organism-based; parameters: dose 3 mg/kg, route oral; conditions: in vivo
[30] = as §1; format: ADME, organism-based; parameters: dose 10 mg/kg, route oral; conditions: Sprague-Dawley, in vivo
[31] = as §2; format: ADME, organism-based; conditions: Sprague-Dawley, in vivo

Corticotropin releasing hormone receptor 2, sequence (B8Q4Z9 whole entry): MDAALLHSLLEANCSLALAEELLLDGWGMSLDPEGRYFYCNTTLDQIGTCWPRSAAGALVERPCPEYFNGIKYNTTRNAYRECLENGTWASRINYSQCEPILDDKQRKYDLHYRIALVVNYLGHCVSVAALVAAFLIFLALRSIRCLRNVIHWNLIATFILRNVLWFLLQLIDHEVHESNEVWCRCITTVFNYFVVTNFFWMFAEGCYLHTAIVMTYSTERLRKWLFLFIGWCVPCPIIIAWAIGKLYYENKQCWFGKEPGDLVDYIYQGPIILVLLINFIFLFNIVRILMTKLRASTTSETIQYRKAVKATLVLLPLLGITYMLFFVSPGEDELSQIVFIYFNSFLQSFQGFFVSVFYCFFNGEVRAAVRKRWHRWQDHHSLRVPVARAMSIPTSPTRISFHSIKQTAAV

Compound	concentration (Rattus norvegicus [1])	fraction unbound at 3 h [2]	CLint scaled at 1 µM [4]	Cp(f) (Rattus norvegicus [5])	IC50 [7]	bioavailability [12]	half-life [13]	solubility [15]	Vd [16]	AUC [19]	Cmax [20]	solubility [24]	AUC [27]	clearance [28]	Activity (Rattus norvegicus [3])	Activity (Rattus norvegicus [6])	other results
C[C@H](C1CC1)n1cc(Cl)nc(Nc2c(Cl)cc(C#N)cc2Cl)c1=O	120 nM	0.019	58 mL/min/kg	2.3 nM	–	–	–	–	–	–	–	–	–	–	11%	–	–
C[C@H](C1CC1)n1cc(C#N)nc(Nc2c(Cl)cc(OC(F)F)cc2Cl)c1=O	–	0.03	–	–	4.3 nM	10%	12 h	< 1 µg/mL	13 L/kg	1.9 µM·h	160 nM	< 1 µg/mL	15 µM·h	21 mL/min/kg	55%	61%	Cmax [30]: 1600 nM; bioavailability [31]: 80%
CC[C@H](C)[C@H](NC(=O)[C@@H](NC(=O)[C@H](CC(=O)O)NC(=O)[C@H](CC(C)C)NC(=O)[C@H](CC(C)C)NC(=O)[C@H](CC(C)C)NC(=O)[C@H](CCCNC(=N)N)NC(=O)[C@H](CC(N)=O)NC(=O)[C@H](CC(N)=O)NC(=O)[C@H](C)NC(=O)[C@H](C)NC(=O)[C@H](CCC(N)=O)NC(=O)[C@H](CCC(N)=O)NC(=O)[C@H](CCCCN)NC(=O)[C@H](CCC(=O)O)NC(=O)[C@H](CCCCN)NC(=O)[C@H](CCC(=O)O)NC(=O)[C@H](CCC(N)=O)NC(=O)[C@H](CCCCN)NC(=O)[C@H](CCC(=O)O)NC(=O)[C@@H](NC(=O)[C@H](CCC(=O)O)NC(=O)[C@@H](NC(=O)[C@H](CCSC)NC(=O)[C@H](CCCCN)NC(=O)[C@H](CCCNC(=N)N)NC(=O)[C@H](CC(C)C)NC(=O)[C@H](CC(C)C)NC(=O)[C@H](CCC(=O)O)NC(=O)[C@H](CC(C)C)NC(=O)[C@H](CO)NC(=O)[C@H](CC(C)C)NC(=O)[C@H](CC(=O)O)NC(=O)[C@@H](NC(=O)[C@H](CO)NC(=O)[C@@H](NC(=O)[C@@H]1CCCN1C(=O)[C@@H]1CCCN1C(=O)CNC(=O)[C@@H]1CCC(=O)N1)[C@@H](C)CC)[C@@H](C)CC)[C@@H](C)CC)[C@@H](C)CC)[C@@H](C)O)C(N)=O [SAUVAGINE]	–	–	–	–	–	–	–	–	–	–	–	–	–	–	–	–	IC50 [10]: 0.58 nM
C[C@H](C1CC1)n1cc(C#N)nc(Nc2c(Cl)cc(C(F)(F)F)cc2Cl)c1=O	1400 nM	0.011	13 mL/min/kg	16 nM	7.5 nM	–	–	–	–	–	–	–	–	–	68%	–	–

Further lines, with some results ahead:

concentration (Rattus norvegicus [1])	fraction unbound at 3 h [2]	CLint scaled at 1 µM [4]	Cp(f) (Rattus norvegicus [5])	IC50 [7]	bioavailability [12]	half-life [13]	solubility [15]	Vd [16]	AUC [19]	Cmax [20]	solubility [24]	AUC [27]	clearance [28]	Compound	Activity (Rattus norvegicus [3])	Activity (Rattus norvegicus [6])	other results
–	–	–	–	1.2 nM	–	–	–	–	–	–	–	–	–	COCC(COC)Nc1nc(C)nc2c(-c3ccc(Cl)cc3Cl)c(C)nn12	–	61%	–
790 nM	0.0077	62 mL/min/kg	6.1 nM	1 nM	5%	7.8 h	< 1 µg/mL	4.7 L/kg	1.3 µM·h	100 nM	< 1 µg/mL	12 µM·h	17 mL/min/kg	C[C@@H](C1CC1)n1cc(Cl)nc(Nc2c(Cl)cc(OC(F)F)cc2Cl)c1=O	83%	61%	Cmax (Rattus norvegicus [8]): 1700 nM; Activity (Rattus norvegicus [9]): 43%; IC50 [10]: > 10000 nM; F (Rattus norvegicus [11]): 52%; Activity (Rattus norvegicus [14]): Dose-dependent effect; Cp(f) (Rattus norvegicus [17]): 0.62 nM; concentration (Rattus norvegicus [18]): 270 nM; Activity (Rattus norvegicus [21]): 46%; IC50 [22]: 4.9 nM; Activity (Rattus norvegicus [23]): 8%; Activity (Rattus norvegicus [25]): 73%; concentration (Rattus norvegicus [26]): 80 nM; Cp(f) (Rattus norvegicus [29]): 2.1 nM
250 nM	0.044	38 mL/min/kg	11 nM	2.9 nM	–	–	–	–	–	–	–	–	–	Cc1cc(C#N)cc(Cl)c1Nc1nc(Cl)cn([C@H](C)C2CC2)c1=O	34%	–	–
–	–	–	–	3.1 nM	6%	12 h	1360 µg/mL (≈ 4100 µM)	12 L/kg	0.95 µM·h	95 nM	13 µg/mL (≈ 39.2 µM)	1.7 µM·h	30 mL/min/kg	Cc1cn([C@H](C)C2CC2)c(=O)c(Nc2c(C)cc(Cl)cc2C)n1	–	–	Cmax [30]: 270 nM; bioavailability [31]: 10%
2000 nM	0.0033	10 mL/min/kg	6.7 nM	4.1 nM	37%	17 h	–	24 L/kg	7.35 µM·h	490 nM	–	–	21 mL/min/kg	C[C@H](C1CC1)n1cc(Cl)nc(Nc2c(Cl)cc(C(F)(F)F)cc2Cl)c1=O	81%	68%	Activity (Rattus norvegicus [9]): inactive; Activity (Rattus norvegicus [21]): inactive; Activity (Rattus norvegicus [23]): inactive; Activity (Rattus norvegicus [25]): inactive
